Laboratory results reported in a melting point compilation (Tetko et al.).

| Structure (SMILES) | melting point |
| --- | --- |
| Cn1cnc2ncnc-2c1N | 300 °C |
| CCC(C)C(=O)NC1CCC(=O)N(CCc2ccccc2)C1=O (stereo not given) | 108 °C |
| Oc1cc(O)nc(S)n1 | 240 to 255 °C |
| N#Cc1cnn2c(C(F)(F)F)cc(C(F)(F)F)nc12 | 75 to 77 °C |
| CC(Cc1ccccc1)NC(C#N)c1ccccc1 (stereo not given) | 85 °C |
| NC1CONC1=O (stereo not given) | 156 °C |
| FC(F)C(F)C(F)(F)F (stereo not given) | -156 °C |
| COc1ccc(N)cc1OC | 88 °C |
| O=C(O)Cc1ccc2c(c1)NC(=O)C2 | 238 °C |
| Nc1ccc(CN2CCS(=O)(=O)CC2)cc1 | 156 °C |
| CCCC(C)(O)C#CC(C)(O)CCC (stereo not given) | 68.5 °C |
| CCOC(=O)CC(=O)C(F)(F)F | -39 °C |
| Oc1c(I)cc(I)c2cccnc12 | 210 °C |
| CCCCNCCO | -2 °C |
| CCCCCCCCCCCCCC(=O)Nc1ccccc1 | 82 to 87 °C |
| CCNc1cccc(O)c1 | 62 °C |
| CSCCC(N)CO (stereo not given) | 31 to 36 °C |
| CN(C)C(=O)OC1N=C(c2ccccc2)c2cc(Cl)ccc2N(C)C1=O (stereo not given) | 174 °C |
| c1ccc(Cc2cccnc2)cc1 | 34 °C |
| CC1=C(C)C(C(C)C)C=C1Cc1ccccc1 (stereo not given) | 54 °C |
| Nc1cc(F)ccc1Br | 44 °C |

| Structure (SMILES) | melting point |
| --- | --- |
| C=COCCCl | -70 °C |
| Ic1cc(I)c(I)cc1I | 254 °C |
| Cc1ccc(Br)c(C)c1 | -17 °C |
| CCCCOP(=O)(O)OCCCC | -13 °C |
| COc1ccc2c3c1OC1C(=O)CCC4(O)C(C2)N(C)CCC314 (stereo not given) | 219 °C |
| Cc1nc2ccccc2n1CC(=O)O | 260 to 262 °C |
| O=C1C(C(Br)C2(Br)C(=O)N(c3ccccc3)N=C2c2ccc([N+](=O)[O-])cc2)C(c2ccc([N+](=O)[O-])cc2)=NN1c1ccccc1 (stereo not given) | 308 to 310 °C |
| CN1CCN(C)c2cc(Br)ccc21 | 55 to 56 °C |
| CN1CCC23c4c5ccc(OCCN6CCOCC6)c4OC2C(O)C=CC3C1C5 (stereo not given) | 91 °C |
| Nc1ccccc1F | -29 °C |
| ClC1CCCCC1 | -44 °C |
| O=CCCc1ccccc1 | 47 °C |
| Cc1cc(C(=O)CBr)ccc1Cl | 56 to 57 °C |
| C[C@@]1(CO)N[C@H](C(=O)O)CC2c3ccccc3NC21 (stereo not given in full) | 258 to 262 °C |
| CC(C)(C)OC(=O)N1CCC(C(N)=O)CC1 | 163 to 164 °C |
| CC(C)(C)OC(=O)Nc1cccs1 | 151 to 152 °C |
| O=C(CCc1ccccc1)CCc1ccccc1 | 13.5 °C |
| O=[N+]([O-])c1ccc(Br)nc1 | 138 °C |
| Cc1ccc(O)c(C(=O)C(F)(F)F)c1 | 41 °C |
| O=C1NN=C(C(F)(F)F)C1=NNc1ccccc1C(=O)O | 274 °C |
| CC(C)CNC(=O)C(C(F)(F)F)C(F)(F)F | 111 °C |

| Structure (SMILES) | melting point |
| --- | --- |
| Cc1c([N+](=O)[O-])cc(N)cc1[N+](=O)[O-] | 171 °C |
| NC(=S)c1c[nH]cn1 | 205 to 207 °C |
| CCCCC(C)CCO (stereo not given) | -90 °C |
| C#CC1(O)CCC2C3CCC4=CC(=O)CCC4C3CCC21C (stereo not given) | 204 °C |
| CC/C=C(\C)C(=O)O | 24.4 °C |
| O=C(CCl)c1cc(Br)c(Cl)s1 | 77 to 78 °C |
| CCCC(=O)Nc1ccccc1 | 97 °C |
| CC1(C)CON(Cc2ccccc2Cl)C1=O | 33.9 °C |
| CNc1ccncc1 | 126 °C |
| O=C1OC(=O)C2=C1Cc1ccccc1C2 | 241 to 247 °C |
| O=C1OC(c2cc(Br)c(O)c(Br)c2)(c2cc(Br)c(O)c(Br)c2)c2ccccc21 | 296 °C |
| O=Cc1csc(-c2ccccc2)n1 | 51 to 52 °C |
| Cn1cc(S(=O)(=O)Cl)c(C(F)(F)F)n1 | 34 to 36 °C |
| NC(=O)NNC(N)=O | 247 to 250 °C |
| O=Cc1coc2c(Cl)cc(Cl)cc2c1=O | 169 to 174 °C |
| Cc1cncc(N2CCNCC2)n1 | 49 to 51 °C |
| N#CCc1ccc2c(c1)OCO2 | 43 to 45 °C |
| C=CCc1cc(OC)c(OC)c(OC)c1OC | 25 °C |
| S=C(NCCN1CCOCC1)NC1CCCCC1 | 125 to 126 °C |
| O=c1occo1 | 19 to 22 °C |
| FC(F)(F)c1ccccc1-n1cc[nH]c1=S | 236 to 238 °C |

| Structure (SMILES) | melting point |
| --- | --- |
| c1ccc(P(c2ccccc2)c2ccc3ccccc3c2-c2c(P(c3ccccc3)c3ccccc3)ccc3ccccc23)cc1 | 283 °C |
| Nc1c(C=NNc2ccccc2)ccc2c1C(=O)c1ccccc1C2=O | 209 to 211 °C |
| COc1ccc(C(=O)CCl)cc1 | 98 to 100 °C |
| Sc1nnc(S)s1 | 161 to 165 °C |
| O=C1c2ccccc2C(O)(O)C1(O)C1(O)C(=O)c2ccccc2C1(O)O (stereo not given) | 240 °C |
| Nc1cccc(C=O)c1 | 30 °C |
| N=C1NC(=O)C(=NNc2ccc(Br)cc2)S1 | 284 °C |
| BrC12CC3CC(CC(C3)C1)C2 | 119 °C |
| Cc1c(C(=O)O)nnn1Cc1ccc(Br)cc1 | 192 to 193 °C |
| CN(C)CCC#N | -43 °C |
| COc1ccc2c(C(=O)c3ccc(Cl)cc3)c(C)n(CC(=O)O)c2c1 | 242 °C |
| COC(OC)(OC)OC | -5 °C |
| BrCc1ccc(OC2CCOCC2)cc1 | 56 to 58 °C |
| CC1(C)SC2C(N)C(=O)N2C1C(=O)O (stereo not given) | 198 to 200 °C |
| O=S(=O)(Cl)c1c(Cl)cc(Br)cc1Cl | 45 °C |
| Cc1ccc(C#N)c(S(=O)(=O)Cl)c1 | 71 to 73 °C |
| N=c1oc2ccccc2cc1CSN | 165 °C |
| Cc1cc(OC(=O)N(C)C)nn1C(=O)N(C)C | 69.5 °C |
| c1ccc(CCc2ccccn2)cc1 | -3 °C |
| Nc1n[nH]c2ccc(C(F)(F)F)cc12 | 135 °C |

Next, values leading:

| melting point | Structure (SMILES) |
| --- | --- |
| 71 °C | O=C1Cc2cccc(Cl)c21 |
| 66 °C | Cc1cc(C)c2cnn(-c3ccccc3)c2n1 |
| 137 to 139 °C | COc1ccc(C=C(Oc2ccc(Cl)cc2)c2nc3ccccc3s2)cc1 |
| 262 to 268 °C | O=C(O)c1cccc(-n2cncn2)c1 |
| 255 °C | FC(F)(F)c1nnc(S)n1N=Cc1ccc(Cl)cc1 |
| 170 °C | O=C(NC(c1ccccc1)C(O)C(=O)O)c1ccccc1 (stereo not given) |
| 97 °C | S=C=Nc1ccc(N=Nc2ccccc2)cc1 |
| 191 °C | Nc1ccc(F)c(C(=O)O)c1 |
| 176 °C | COc1nccnc1NS(=O)(=O)c1ccc(N)cc1 |
| 75 °C | COc1ccc(C(C)=O)cc1Cl |
| 199 to 201 °C | NS(=O)(=O)c1ccc(-c2ccc(C=O)o2)cc1 |
| 195 °C | O=C(O)C1(C(=O)Nc2ccc(Cl)cc2Cl)CC1 |
| 301 °C | CC1(C)OC(=O)C(=Cc2ccc([N+](=O)[O-])cc2)C(=O)O1 |
| 109 °C | COc1ccc(C(=O)c2ccc(Cl)cc2)cc1OC |
| 199 to 201 °C | CN1N=C2c3ccccc3CCC2C1c1ccc(Cl)cc1 (stereo not given) |
| 177 to 178 °C | Cc1c(CC(=O)O)sc2ccc(Cl)cc12 |
| -11.3 °C | CC(C)(C)c1cccc2ccccc12 |
| 116 °C | O=C1c2ccccc2C(=O)N1Cc1ccccc1 |
| 97 °C | CC(C)n1cc(-c2ccc(F)cc2)c2ccccc21 |
| 240 °C | NC(C(=O)O)c1ccc(O)cc1 (stereo not given) |
| 72 to 74 °C | CC(C)Nc1ccc(Cl)cc1[N+](=O)[O-] |
| 182 to 184 °C | CC(/C=C(\C)c1ccc(C)cc1)=NNc1ccc([N+](=O)[O-])cc1[N+](=O)[O-] |
| 123 to 124 °C | COc1ccc2c(CC(=O)O)coc2c1 |
| 97.3 °C | COC(=O)[C@H]1OC(c2ccc(OC)c(OC)c2)([C@@H](C)Br)O[C@@H]1C(=O)OC |
| 57 °C | Cc1ccc([Si](C)(Cl)Cl)cc1 |
| 241 to 243 °C | NN=C1c2ccccc2C(=O)C1C(=O)C(c1ccccc1)c1ccccc1 (stereo not given) |

| melting point | Structure (SMILES) |
| --- | --- |
| 19 °C | CCC(=O)c1cccc(C(F)(F)F)c1 |
| 174 to 175 °C | O=C(c1cc2ccccc2o1)c1cc2ccccc2o1 |
| 124 °C | CC(C)(C)NCC(O)COc1cccc2c1CC(O)C(O)C2 (stereo not given) |
| 84 to 86 °C | COc1cc(N=C=S)c(OC)cc1Cl |
| 98 to 99 °C | O=[N+]([O-])c1cccnc1Oc1ccc(F)cc1 |
| 247 to 249 °C | COc1nsc(Nc2ccc(Cl)cc2)n1 |
| 173 °C | COc1ccc(-c2nnc3n2NC(c2ccc(O)c(OC)c2)S3)cc1 (stereo not given) |
| 78 to 80 °C | Cc1ccc(/C=C(\C#N)c2nc(-c3ccccc3)cs2)cc1 |
| -11 °C | CCc1ccccc1Cc1ccccc1 |
| 185 to 188 °C | O=C(O)c1ccc2c(c1)CCO2 |
| 249 °C | O=C(O)c1cc2cc(O)ccc2[nH]1 |
| 74 °C | CC(=O)Oc1ccc(N)cc1 |
| 136 to 138 °C | CSc1nc(N=Cc2ccc(Cl)cc2)nn1C |
| 101 °C | Cc1ccc(S(=O)(=O)n2cccc2)cc1 |
| 155 °C | COc1ccc(-c2cc(=O)c3ccccc3o2)cc1OC |
| 57 to 59 °C | O=Cc1ccc(-c2ccccc2)nc1 |
| 117 °C | O=C1OC(c2ccccc2)c2ccccc21 (stereo not given) |
| 73 to 87 °C | Cc1ccc(Sc2ccc(C(=O)c3ccccc3)cc2)cc1 |
| 203 to 205 °C | O=C(O)c1ccc(=O)oc1 |
| 59 to 61 °C | C=C1N(C(C)=O)c2ccccc2C1(C)C(=O)OC (stereo not given) |
| 34 °C | COc1ccc(CN)c(F)c1F |
| 80 °C | COC1N(c2ccccc2)N=C(c2ccccc2)N1c1ccccc1 (stereo not given) |
| 60 to 62 °C | O=C(Cl)c1ccc(Oc2cc(Cl)cc(Cl)c2)o1 |
| 107 to 108 °C | Cc1ccccc1-c1cc(-c2ccccc2)[nH]n1 |
| 156 °C | Cc1ccc2c(ccc3cc4ccccc4cc32)c1 |
| 190 °C | CC(=O)Oc1ccc(C2(c3ccc(OC(C)=O)cc3)Oc3ccccc3NC2=O)cc1 |
